Literature values in patent publication US20250115648A1 (priority 2013, published 2025).
“And” between values parts separate entries of the source, which are not always exact repeats. Equal entries are not always repeated.

Conditions: cited from earlier work; for Peak Abs.: peak absorbance wavelength of exemplary fluorescent reporter molecule; for Peak Em.: peak emission wavelength of exemplary fluorescent reporter molecule

Compound | Peak Abs. | Peak Em.
CCCCCCCCCCCC[N+](C)(CCCS(=O)(=O)[O-])Cc1ccc2oc(-c3ccc(N(CC)CC)cc3)c(O)c(=O)c2c1 (stereo not shown) [Compound F2N12S] | 405 nanometers | 
O=c1cc(CBr)c2cc3c4c(c2o1)CCCN4CCC3 [CellTracker Violet BMQC] | 415 nanometers | 516 nanometers
carboxytetramethyl-rhodamine [TAMRA] | 565 nanometers | 580 nanometers
Cc1c(CC(=O)NCCCCCC(=O)O)c(=O)oc2cc(N)ccc12 [AMCA-X] | 353 nanometers | 442 nanometers
O=c1ccc2nc3ccc(O)c([As]4SCCS4)c3oc-2c1[As]1SCCS1 [ReAsH (TC-ReAsH)] | 593 nanometers | 608 nanometers
CN1C(=Cc2cc[n+](CCC[N+](C)(C)CCC[N+](C)(C)CCC[n+]3ccc(C=C4Sc5ccccc5N4C)cc3)cc2)Sc2ccccc21.[I-].[I-].[I-].[I-] [BOBO-1] | 570 nanometers | 602 nanometers
Cl.Cl.N=C(N)c1ccc2oc(/C=C/c3cc4cc(C(=N)N)ccc4o3)cc2c1 [True Blue] | 365 nanometers | 425 nanometers
CCN1C(=CC=CC2=[N+](CCCCCC(=O)O)c3ccc(S(=O)(=O)O)cc3C2(C)C)C(C)(C)c2cc(S(=O)(=O)[O-])ccc21 [Cy3] | 552 nanometers | 570 nanometers
Cc1c(CC(=O)O)c(=O)oc2c(F)c(O)c(F)cc12 [Marina Blue] | 365 nanometers | 460 nanometers
Methoxycoumarin | 360 nanometers | 410 nanometers
CCN1c2cc3c(cc2C(C)=CC1(C)C)C(=CC=CC1=[N+](CCCCCC(=O)O)c2ccc(S(=O)(=O)[O-])cc2C1(C)C)C=C(c1ccccc1)O3 [DY-675] | 675 nanometers | 699 nanometers
CC1CC(C)(C)Nc2c1cc1c(c2S(=O)(=O)[O-])Oc2c(S(=O)(=O)[O-])c3c(cc2=C1c1c(Cl)c(SCC(=O)NCCCCCC(=O)ON2C(=O)CCC2=O)c(Cl)c(Cl)c1C(=O)O)C(C)CC(C)(C)N=3.[H+].[Na+] (stereo not shown) [Alexa Fluor 546] | 561 nanometers | 572 nanometers
CN1/C(=C/c2cc[n+](CCC[N+](C)(C)CCC[N+](C)(C)CCC[n+]3ccc(/C=C4\Sc5ccccc5N4C)c4ccccc43)c3ccccc23)Sc2ccccc21.[I-].[I-].[I-].[I-] [TOTO-1] | 513 nanometers | 531 nanometers
CFP: Exemplary fluorescent reporter molecules | 434 nanometers | 
CC1(C)C(=CC=C2CCCC(C=CC3=[N+](CCCCCC(=O)[O-])c4ccc(S(=O)(=O)[O-])cc4C3(C)C)=C2Oc2ccc(S(=O)(=O)[O-])cc2)N(CCCCS(=O)(=O)[O-])c2ccc(S(=O)(=O)[O-])cc21.[Na+].[Na+].[Na+].[Na+] [IRDye 800CW] | 774 nanometers | 789 nanometers
Cascade Blue | 400 nanometers and 377 nanometers | 420 nanometers
O=S(=O)(O)c1cc(Nc2nc(Nc3ccccc3)nc(N(CCO)CCO)n2)ccc1/C=C/c1ccc(Nc2nc(Nc3ccccc3)nc(N(CCO)CCO)n2)cc1S(=O)(=O)O [Calcofluor White] | 350 nanometers | 440 nanometers
CCCCCCCCCCCCCCCCCCN1/C(=C\C=C\c2oc3ccccc3[n+]2CCCCCCCCCCCCCCCCCC)Oc2ccccc21.[O-][Cl+3]([O-])([O-])[O-] [DiO (Vybrant DiO)] | 489 nanometers | 506 nanometers
CN(C)c1ccc(-c2cnc(-c3ccc(S(=O)(=O)NCCNC(=O)c4c(F)c(F)c(F)c(F)c4F)cc3)o2)cc1 [ER-Tracker Blue-White DPX] | 371 nanometers | 554 nanometers
CCN1C(=CC=CC=CC=CC2=[N+](CCCCCC(=O)O)c3ccc(S(=O)(=O)O)cc3C2(C)C)C(C)(C)c2cc(S(=O)(=O)[O-])ccc21 [Cy7] | 745 nanometers | 766 nanometers
CC(=O)Oc1ccc2c(c1)Oc1cc(OC(C)=O)ccc1C21OC(=O)c2cc(CCl)ccc21 [CellTracker Green] | 490 nanometers | 540 nanometers
O=C(O)CCCCCNc1ccc([N+](=O)[O-])c2nonc12 [NBD-X] | 467 nanometers | 538 nanometers
Nc1ccc([N+](=O)[O-])c2nonc12 [NBD Amine] | 450 nanometers | 530 nanometers
Nitrobenzoxadiazole | 465 nanometers | 510 nanometers
Cc1c2oc3c(C)c(N)cc(C(=O)N[C@@H]4C(=O)N[C@H](C(C)C)C(=O)N5CCC[C@H]5C(=O)N(C)CC(=O)N(C)[C@@H](C(C)C)C(=O)O[C@@H]4C)c3nc-2c(C(=O)N[C@@H]2C(=O)N[C@H](C(C)C)C(=O)N3CCC[C@H]3C(=O)N(C)CC(=O)N(C)[C@@H](C(C)C)C(=O)O[C@@H]2C)c(N)c1=O [Compound 7-AAD, 7-AAD] | 549 nanometers | 644 nanometers
SYTO 16 | 490 nanometers | 520 nanometers
CCCCCCCCCCCCCCCCCCN1/C(=C/C=C/C=C/C2=[N+](CCCCCCCCCCCCCCCCCC)c3ccccc3C2(C)C)C(C)(C)c2ccccc21.[O-][Cl+3]([O-])([O-])[O-] [DiD (Vybrant DiD)] | 645 nanometers | 670 nanometers

Compound | Peak Abs. | Peak Em.
Carboxynaphthofluorescein | 600 nanometers | 674 nanometers
Cc1c(CC(=O)O)c(=O)oc2cc(N)ccc12 [AMCA, aminomethylcoumarin] | 345 nanometers | 425 nanometers
CC1=CC(C)=[N+]2C1=Cc1c(C)cc(C)n1[B-]2(F)F [BODIPY 505/515] | 502 nanometers | 540 nanometers
ClCc1ccc(C2=c3cc4c5c(c3Oc3c2cc2c6c3CCCN6CCC2)CCC[N+]=5CCC4)cc1.[Cl-] [MitoTracker Red CMXRos] | 578 nanometers | 597 nanometers
CC[N+]1=c2cc3c(cc2CCC1)=Nc1cc2c(cc1O3)N(CCCC(=O)O)C(C)(C)C=C2CS(=O)(=O)[O-] [ATTO 680] | 680 nanometers | 700 nanometers
CCN(CC)c1ccc(/C=C/C=C/c2cc[n+](CC(O)C[N+](C)(C)CCO)cc2)cc1.[Br-].[Br-] (stereo not shown) [RH 795] | 530 nanometers | 712 nanometers
SYTO 9 | 482 nanometers | 500 nanometers
CN(C)c1ccc2c(-c3ccc(CCl)cc3)c3ccc(=[N+](C)C)cc-3oc2c1.[Cl-] | 551 nanometers | 576 nanometers
CCCCCCCCCCCCc1cc2nc3ccc(O)cc3oc-2cc1=O [2-dodecylresorufm] | 582 nanometers | 595 nanometers
O=C([O-])c1ccc(C2=c3cc4c5c(c3Oc3c2cc2c6c3CCCN6CCC2)CCC[N+]=5CCC4)c(C(=O)O)c1 [Compound 5-ROX] | 577 nanometers | 603 nanometers
O=S(=O)(O)c1cccc2cccc(Nc3ccccc3)c12 [1,8-ANS] | 372 nanometers | 480 nanometers
Allophycocyanin [APC (Allophycocyanin)] | 651 nanometers | 660 nanometers
CCCCCCCCCCCCCCCCCCN1/C(=C\C=C\c2oc3ccccc3[n+]2CCCCCCCCCCCCCCCCCC)Oc2ccccc21.[O-][Cl+3]([O-])([O-])[O-] [DiO] | 484 nanometers | 501 nanometers
Rhod-2 | 551 nanometers | 576 nanometers
O=C1OC2(c3ccc(O)cc3Oc3cc(O)ccc32)c2ccc(N=C=S)cc21 [FITC (Fluorescein), fluorescein isothiocyanine] | 492 nanometers | 520 nanometers
CN(C)CCNc1ccc(O)c2c1C(=O)c1c(O)ccc(NCCN(C)C)c1C2=O [DRAQ5] | 650 nanometers | 680 nanometers
CC1(C)C2=C(Cl)C(=O)C(Cl)=CC2=Nc2ccc(O)cc21 [DDAO] | 648 nanometers | 658 nanometers
CCCCCCCCCCCCCCCCCCN1/C(=C/C=C/C2=[N+](CCCCCCCCCCCCCCCCCC)c3ccccc3C2(C)C)C(C)(C)c2ccccc21.[O-][Cl+3]([O-])([O-])[O-] [DiI (CellTrackerDiI)] | 551 nanometers | 568 nanometers
Fluo-4 | 494 nanometers | 540 nanometers
TOTO-3 | 642 nanometers | 661 nanometers
O=S(=O)([O-])c1cc(Nc2nc(Nc3ccccc3)nc(N(CCO)CCO)n2)ccc1/C=C/c1ccc(Nc2nc(Nc3ccccc3)nc(N(CCO)CCO)n2)cc1S(=O)(=O)[O-].[Na+].[Na+] [Phorwite AR] | 360 nanometers | 430 nanometers
CC1(C)C=C(CS(=O)(=O)O)c2cc3c(C(F)(F)F)cc(=O)oc3cc2N1CCCCCC(=O)ON1C(=O)CCC1=O.CCN(CC)CC [Alexa Fluor 430] |  | 540 nanometers
Phycoerythrin [Phycoerythrin (PE, R-phycoerythrin)] | 567 nanometers | 576 nanometers
Cy5.5 | 672 nanometers and 678 nanometers | 690 nanometers and 696 nanometers
CN1/C(=C/C=C/c2cc[n+](CCC[N+](C)(C)CCC[N+](C)(C)CCC[n+]3ccc(/C=C/C=C4/Sc5ccccc5N4C)cc3)cc2)Sc2ccccc21.[I-].[I-].[I-].[I-] [BOBO-3] | 570 nanometers and 571 nanometers | 602 nanometers and 606 nanometers
COc1cc2cc(-c3ccc(C(=O)O)cc3C(=O)O)oc2cc1N1CCOCCOCCN(c2cc3oc(-c4ccc(C(=O)O)cc4C(=O)O)cc3cc2OC)CCOCCOCC1 [PBFI] | 360 nanometers | 420 nanometers
